Data reported in patent US10780074B2, “Compounds and uses thereof” (Sunovion Pharmaceuticals Inc., priority 2017, dated 2020).
Counter-ions that a name gives are not always drawn. Like-named read-outs stand apart in the source and are kept apart here.

System: behaviors of compound-treated mice
Assay: Neuropharmacological Assay (SmartCube)
Format: in vivo
Conditions: for minimal effective dose: Mus musculus, ip, 0.25 h, dose having 50% or more total activity in SmartCube, read-out: MED (minimal effective dose)
Procedure, shortened: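 Behavioral signatures were captured automatically by video, and each drug class received a probability for the best of three i.p. doses given 15 min pre-test (vehicle: Pharmasolve/PEG/propylene glycol). Potency is given as MED, the lowest mpk dose (typically 0.3–30) reaching 50% or more total activity.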

[1] = i.p. 15 min before behavioral test, most efficacious dose(s) of 3 doses
[2] = SmartCube, i.p. 15 min before test, most efficacious dose(s)

SMILES	minimal effective dose (i.p.)	AD: ADHD (probability that activity matches class) [1]	AG: analgesic (probability that activity matches class) [1]	AX: anxiolytic (probability that activity matches class) [1]	CE: cognitive enhancer (probability that activity matches class) [1]	DP: anti-depressant (probability that activity matches class) [1]	MS: mood stabilizer (probability that activity matches class) [1]	PS: anti-psychotic (probability that activity matches class) [1]	SD: sedative hypnotic (probability that activity matches class) [1]	UN: uncharacterized CNS activity (probability that activity matches class) [1]	minimal effective dose	AD: ADHD (probability that activity matches class) [2]	AG: analgesic (probability that activity matches class) [2]	AX: anxiolytic (probability that activity matches class) [2]	CE: cognitive enhancer (probability that activity matches class) [2]	DP: anti-depressant (probability that activity matches class) [2]	MS: mood stabilizer (probability that activity matches class) [2]	PS: anti-psychotic (probability that activity matches class) [2]	SD: sedative hypnotic (probability that activity matches class) [2]	UN: uncharacterized CNS activity (probability that activity matches class) [2]
CNC[C@@H]1OCCc2cc(-c3cccnn3)ccc21 (single isomer, unassigned) [Compound 31, hydrochloride]	> 30 mg/kg	+ (LOQ ≤ + <5%)	+ (LOQ ≤ + <5%)	++ (5% ≤ ++ <25%)	+ (LOQ ≤ + <5%)	++ (5% ≤ ++ <25%)	+ (LOQ ≤ + <5%)	+ (LOQ ≤ + <5%)	+ (LOQ ≤ + <5%)	+ (LOQ ≤ + <5%)	–	–	–	–	–	–	–	–	–	–
NC[C@@H]1OCc2c(-c3ccncc3)cccc21 (single isomer, unassigned) [Compound 37, hydrochloride salt]	10 to 30 mg/kg	++ (5% ≤ ++ <25%)	++ (5% ≤ ++ <25%)	++ (5% ≤ ++ <25%)	+ (LOQ ≤ + <5%)	+++ (25% ≤ +++ <50%)	+ (LOQ ≤ + <5%)	+ (LOQ ≤ + <5%)	+ (LOQ ≤ + <5%)	+ (LOQ ≤ + <5%)	–	–	–	–	–	–	–	–	–	–
NC[C@H]1OCCCc2c(-c3ccccn3)cccc21 [Compound 159, (S)-(6-(pyridin-2-yl)-1,3,4,5-tetrahydrobenzo[c]oxepin-1-yl)methanamine hydrochloride salt]	10 to 30 mg/kg	+ (LOQ ≤ + <5%)	+ (LOQ ≤ + <5%)	+ (LOQ ≤ + <5%)	+ (LOQ ≤ + <5%)	+ (LOQ ≤ + <5%)	+ (LOQ ≤ + <5%)	+ (LOQ ≤ + <5%)	+ (LOQ ≤ + <5%)	+ (LOQ ≤ + <5%)	–	–	–	–	–	–	–	–	–	–
CNC[C@@H]1OCCCc2c(-c3cncs3)cccc21 (single isomer, unassigned) [Compound 168, hydrochloride salt]	≤ 3 mg/kg	++ (5% ≤ ++ <25%)	+ (LOQ ≤ + <5%)	++ (5% ≤ ++ <25%)	+ (LOQ ≤ + <5%)	++++ (50% ≤ ++++)	+ (LOQ ≤ + <5%)	+ (LOQ ≤ + <5%)	++ (5% ≤ ++ <25%)	++ (5% ≤ ++ <25%)	–	–	–	–	–	–	–	–	–	–
CNC[C@@H]1OCCc2cccc(-c3cccnc3)c21 (single isomer, unassigned) [Compound 1, bis-hydrochloride]	10 to 30 mg/kg	+ (LOQ ≤ + <5%)	+ (LOQ ≤ + <5%)	++ (5% ≤ ++ <25%)	++ (5% ≤ ++ <25%)	++ (5% ≤ ++ <25%)	+ (LOQ ≤ + <5%)	++ (5% ≤ ++ <25%)	+ (LOQ ≤ + <5%)	++ (5% ≤ ++ <25%)	–	–	–	–	–	–	–	–	–	–
NC[C@@H]1OCCc2c(-c3cncs3)cccc21 (single isomer, unassigned) [Compound 70, hydrochloride salt]	3 to 10 mg/kg	++ (5% ≤ ++ <25%)	+ (LOQ ≤ + <5%)	++ (5% ≤ ++ <25%)	+ (LOQ ≤ + <5%)	++++ (50% ≤ ++++)	+ (LOQ ≤ + <5%)	+ (LOQ ≤ + <5%)	+ (LOQ ≤ + <5%)	+++ (25% ≤ +++ <50%)	–	–	–	–	–	–	–	–	–	–
CNC[C@@H]1OCCc2c(-c3cncs3)cccc21 (single isomer, unassigned) [Compound 68, hydrochloride salt]	3 to 10 mg/kg	++ (5% ≤ ++ <25%)	+ (LOQ ≤ + <5%)	++ (5% ≤ ++ <25%)	+ (LOQ ≤ + <5%)	++++ (50% ≤ ++++)	+ (LOQ ≤ + <5%)	+ (LOQ ≤ + <5%)	+ (LOQ ≤ + <5%)	++ (5% ≤ ++ <25%)	–	–	–	–	–	–	–	–	–	–
NC[C@@H]1OCCCc2c(-c3ccncn3)cccc21 (single isomer, unassigned) [Compound 166]	10 to 30 mg/kg	+ (LOQ ≤ + <5%)	+ (LOQ ≤ + <5%)	+ (LOQ ≤ + <5%)	+ (LOQ ≤ + <5%)	+ (LOQ ≤ + <5%)	+ (LOQ ≤ + <5%)	+ (LOQ ≤ + <5%)	+ (LOQ ≤ + <5%)	+ (LOQ ≤ + <5%)	–	–	–	–	–	–	–	–	–	–
Cc1cc(-c2cccc3c2CCO[C@@H]3CN)ccn1 (single isomer, unassigned) [Compound 123, hydrochloride salt]	≤ 3 mg/kg	++ (5% ≤ ++ <25%)	+ (LOQ ≤ + <5%)	++ (5% ≤ ++ <25%)	+ (LOQ ≤ + <5%)	++++ (50% ≤ ++++)	+ (LOQ ≤ + <5%)	+ (LOQ ≤ + <5%)	+ (LOQ ≤ + <5%)	+ (LOQ ≤ + <5%)	–	–	–	–	–	–	–	–	–	–
NC[C@@H]1OCCc2c(-c3ccccn3)cccc21 (single isomer, unassigned) [Compound 45, hydrochloride]	10 to 30 mg/kg	+ (LOQ ≤ + <5%)	++ (5% ≤ ++ <25%)	++ (5% ≤ ++ <25%)	+ (LOQ ≤ + <5%)	++ (5% ≤ ++ <25%)	+ (LOQ ≤ + <5%)	+ (LOQ ≤ + <5%)	+ (LOQ ≤ + <5%)	+++ (25% ≤ +++ <50%)	–	–	–	–	–	–	–	–	–	–
CNCC1OCCc2c(-c3cnoc3)cccc21 (stereo not shown) [Compound 65, 1-(5-(Isoxazol-4-yl)isochroman-1-yl)-N-methylmethanamine hydrochloride salt]	3 to 10 mg/kg	++ (5% ≤ ++ <25%)	+ (LOQ ≤ + <5%)	+ (LOQ ≤ + <5%)	++ (5% ≤ ++ <25%)	++++ (50% ≤ ++++)	+ (LOQ ≤ + <5%)	++ (5% ≤ ++ <25%)	++ (5% ≤ ++ <25%)	++ (5% ≤ ++ <25%)	–	–	–	–	–	–	–	–	–	–
NC[C@@H]1OCCc2c(-c3cnco3)cccc21 (single isomer, unassigned) [Compound 98, hydrochloride salt]	≤ 3 mg/kg	++ (5% ≤ ++ <25%)	+ (LOQ ≤ + <5%)	++ (5% ≤ ++ <25%)	+ (LOQ ≤ + <5%)	++++ (50% ≤ ++++)	+ (LOQ ≤ + <5%)	+ (LOQ ≤ + <5%)	+ (LOQ ≤ + <5%)	+ (LOQ ≤ + <5%)	–	–	–	–	–	–	–	–	–	–
NC[C@@H]1OCCc2c1cccc2-n1ccnc1 [Compound 184, (R)-(5-(1H-Imidazol-1-yl)isochroman-1-yl)methanamine hydrochloride salt]	–	–	–	–	–	–	–	–	–	–	10 to 30 mg/kg	+ (LOQ ≤ + <5%)	+ (LOQ ≤ + <5%)	++ (5% ≤ ++ <25%)	+ (LOQ ≤ + <5%)	+ (LOQ ≤ + <5%)	+ (LOQ ≤ + <5%)	+ (LOQ ≤ + <5%)	+ (LOQ ≤ + <5%)	+ (LOQ ≤ + <5%)
